Reference: the NIST ThermoML archive (doi:10.1021/je400109a)
± gives the expanded uncertainty stated by the source.

Assay: an = ratio of the nth substance listed
Conditions: 101 kPa, Liquid, Vibrating tube method

SMILES: COP(=O)([O-])OC.Cn1cc[n+](C)c1 [1,3-dimethylimidazolium dimethylphosphate] + O
- mass density (293.15 K, a1 = 0.5): 1086.4 ± 0.2 kg/m3
- mass density (293.15 K, a1 = 0.75): 1112.3 ± 0.3 kg/m3
- mass density (313.15 K, a1 = 0.5): 1076.8 ± 0.2 kg/m3
- mass density (313.15 K, a1 = 0.75): 1104.1 ± 0.2 kg/m3
- mass density (333.15 K, a1 = 0.5): 1076.6 ± 0.2 kg/m3
- mass density (333.15 K, a1 = 0.75): 1103.3 ± 0.2 kg/m3

SMILES: Cn1cc[n+](C)c1.F[B-](F)(F)F [1,3-dimethyl-1H-imidazolium tetrafluoroborate] + O
- mass density (313.15 K, a1 = 0.75): 1098.4 ± 0.3 kg/m3

SMILES: Cn1cc[n+](C)c1.[Cl-] [1,3-dimethylimidazolium chloride] + O
- mass density (313.15 K, a1 = 0.75): 1096.1 ± 0.3 kg/m3
